What was measured:
Type in all cases: cell-based, human
[1] = test system: hES-3-MC aggregates (agitation culture); assay: DoE multifactorial mesoderm induction: % KDR+ cells by flow cytometry; conditions: BMP4 10 to 50 ng/ml, Activin A 0-80 ng/ml, CHIR exposure 0 to 24 hours, 4 days post initiation of differentiation
Experimental: (§1) Different doses (and/or duration of exposure) of cytokines and small-molecules with known roles in inducing mesoderm and hematopoietic differentiation were evaluated using the MODDE® software for differentiation of hES-3 MC aggregate cultures initially derived under agitation. The DoE was designed to investigate effects of BMP4 (10-50 ng/ml), Activin A (0 to 80 ng/ml), CHIR (0-15 μM at 0 to 48 hours after start of mesoderm induction). These variables generated 29 culture conditions (FIG. 2A), which were tested for their effects on percent of KDR+ cells (4 days post initiation of differentiation) and the following stage of hematopoietic precursors generation (2 weeks of culture in Blast growth medium (BGM)).
Design of experiments (DoE) using a resolution IV Fractional Factorial Design was performed using the MODDE software (Sartorius Stedim Biotech, Germany) to evaluate initial BMP4, Activin A and CHIR-99021, doses and duration of exposure for their effects on the following response factors: induction of KDR+ cells 4 days post mesoderm induction or total hematopoietic precursor cells generated 2 weeks post differentiation.
Design of experiments (DoE) using a resolution IV Fractional Factorial Design was performed using the MODDE software (Sartorius Stedim Biotech, Germany) to evaluate initial BMP4, Activin A and CHIR-99021, doses and duration of exposure for their effects on the following response factors: induction of KDR+ cells 4 days post mesoderm induction or total hematopoietic precursors generated 2 weeks post differentiation. […] Computed model with R2 scores>0.5 indicate a model of significant fit, Q2 scores>0.1 indicate a significant model while Q2>0.5 indicate a good model for estimation of future prediction precision, model validity score of <0.25 indicate statistically significant model problems and reproducibility (the variation of the replicates compared to overall variability) should be greater than 0.5. […]

[2] = test system: hES-3-MC aggregates (agitation culture); assay: DoE: hematopoietic precursor generation, 14 days in Blast growth medium (BGM); conditions: BMP4 10 to 50 ng/ml, Activin A 0-80 ng/ml, CHIR exposure 0 to 24 hours, 2 weeks in BGM
Experimental: as §1
Design of experiments (DoE) using a resolution IV Fractional Factorial Design was performed using the MODDE software (Sartorius Stedim Biotech, Germany) to evaluate initial BMP4, Activin A and CHIR-99021, doses and duration of exposure for their effects on the following response factors: induction of KDR+ cells 4 days post mesoderm induction or total hematopoietic precursors generated 2 weeks post differentiation. […] Computed model with R2 scores>0.5 indicate a model of significant fit, Q2 scores>0.1 indicate a significant model while Q2>0.5 indicate a good model for estimation of future prediction precision, model validity score of <0.25 indicate statistically significant model problems and reproducibility (the variation of the replicates compared to overall variability) should be greater than 0.5.
Human pluripotent stem cell-microcarrier (HPSC-MC) aggregates (derived from 7 day continuous agitation conditions), equivalent to 5×10^5 cells, were seeded and differentiated in 24-well ultra-low attachment plates with Stemline II medium using multi-factorial conditions as detailed in FIG. 2A and FIG. 6A, as well as in Table 3. […]
Following 4 days of differentiation, single cells were derived from microcarrier aggregates by treatment with TrypLE. […] Fold-expansion was calculated as total number of cells derived after 2 weeks as compared to initial seeding of 1×10^5 cells.

[3] = test system: hES-3 microcarrier aggregates; assay: BMP4-based vs CHIR-based differentiation: erythroblasts output per hPSC seeded
Source text: Six conditions were then chosen for the detailed study; conditions 1, 2 and 4 were based on BMP4/Activin A protocols, while conditions 7, 16 and 18 were CHIR-mediated protocols (Table 1).

[4] = hES-3 microcarrier aggregates derived from agitation condition
[5] = hES-3 microcarrier aggregates derived from static condition

Molecule	effect of factor on percent of KDR+ cells (DoE) [1]	effect of factor on hematopoietic precursor generation (DoE) [2]	erythroblasts output per human pluripotent stem cell seeded [3, 4]	erythroblasts output per human pluripotent stem cell seeded [3, 5]
Cc1c[nH]c(-c2cnc(NCCNc3ccc(C#N)cn3)nc2-c2ccc(Cl)cc2Cl)n1 [CHIR-99021, 6-[[2-[[4-(2,4-Dichlorophenyl)-5-(5-methyl-1H-imidazol-2-yl)-2-pyrimidinyl]amino]ethyl]amino]-3-pyridinecarbonitrile]	significant increase	significant increase	8.0±2.1	11.5±2.6
BMP4: bone morphogenic protein; BMP4-based protocol uses 50 ng/ml BMP4 (protein, UniProt P12644 293-408, looked up) Bone morphogenetic protein 4: SPKHHSQRARKKNKNCRRHSLYVDFSDVGWNDWIVAPPGYQAFYCHGDCPFPLADHLNSTNHAIVQTLVNSVNSSIPKACCVPTELSAISMLYLDEYDKVVLKNYQEMVVEGCGCR	did not significantly alter	did not significantly alter	1.2±0.7	7.7±1.9
